SMILES strings stand for the structures. pEC50, pKd: −log10 of the molar value.

As usually defined, the CC50 is the concentration that lowers cell viability or growth by half. Low readings indicate greater toxicity to the cells, high ones lower toxicity to the cells. One may read the pEC50 as the negative decadic logarithm of the EC50, by convention in mol/L. Read a low pEC50 as a high EC50. A word on the pKd: it is the Kd on a negative log10 scale, so that one unit is a factor of ten. Lower therefore signals a large Kd.

Data set [1] can be described thus: Cytotoxicity against human Huh7.5 cells.
The nature of data set [2]: Cytotoxicity against human NCI-H460 cells incubated for 72 hrs by CCK-8 assay.
In data set [3] the test system is Human coronavirus OC43. Kind of data set: microbe, parasite or virus in culture. The settings on record: Betacoronavirus 1, VR-1558, NCI-H460, 72 h.
Description: Antiviral activity against HCoV-OC43 VR-1558 infected in human NCI-H460 cells assessed as inhibition of viral growth incubated for 72 hrs by CCK-8 assay
The nature of another data set: in vitro. The following applies: human, NCI-H460 cells.
Data set [4] can be described thus: Cytotoxicity against human H9 cells.
Data set [5] deals with Replicase polyprotein 1ab (Severe acute respiratory syndrome coronavirus 2, UniProt P0DTD1).
Description: Binding affinity to CM5 sensor chip immobilized SARS-CoV-2 3CL protease assessed as dissociation constant by SPR analysis
Data set [6] relates to Human coronavirus OC43. Nature of the data set: microbe, parasite or virus in culture. The settings on record: Betacoronavirus 1, A549, 96 h.
Description: Antiviral activity against HCoV-OC43 infected in human A549 cells assessed as inhibition of viral growth incubated for 4 days
Another data set has as its system SARS-CoV-2. Nature of the data set: microbe, parasite or virus in culture. The settings on record: Severe acute respiratory syndrome coronavirus 2, IC19/2020, Vero, 48 h.

Description for SARS-CoV-2: Antiviral activity against SARS-CoV-2 IC19/2020 infected in Vero cells assessed as inhibition of viral growth incubated for 48 hrs by plaque assay
Description for in vitro: Selectivity index, ratio of CC50 for cytotoxicity against human NCI-H460 cells to EC50 for antiviral activity against HCoV-OC43 VR-1558 infected in human NCI-H460 cells

`CN(C)C1CN(Cc2ccc(NC(=O)c3ccc(OCCCl)c([N+](=O)[O-])c3)cc2C(F)(F)F)C1` registered a CC50 in data set [1] of 6.47 µM. Further, the CC50 at 72 h in data set [2] worked out at 19.2 µM. In addition, the negative-log EC50 (pEC50) with Human coronavirus OC43 [3] is 5.53. The selectivity ratio in “in vitro” came out at 6.5.

As to `COc1ccc(C(=O)Oc2cc(OC)c(OC)c(OC)c2)cc1NC(=O)C(C)Br` (configuration not stated), it took 3.64 µM to reach half-maximal cytotoxicity in data set [4] (CC50).

`COc1ccc(C(=O)Nc2ccc(OC3CC(N(C)C)C3)cc2C(F)(F)F)cc1[N+](=O)[O-]` (configuration not stated) returned a CC50 at 72 h in data set [2] of 99.5 µM. For the same compound, in the data set with Human coronavirus OC43 [3], the pEC50 was 4.54. Besides, the selectivity ratio in “in vitro” stood at 3.

For the compound `CCOc1ccc(C(=O)Nc2ccc(CN3CC(N(C)C)C3)c(C(F)(F)F)c2)cc1[N+](=O)[O-]`, in data set [2], the 50% cytotoxic concentration (CC50) at 72 h was more than 200 µM. Besides, the pEC50 in the data set on Human coronavirus OC43 [3] is 5.73. In the data set “in vitro”, the selectivity ratio was more than 108. This compound showed a pKd in data set [5] of 4.77.

In the data set on Human coronavirus OC43 [6], `Cc1ccc(NC(=O)c2ccc(CN3CCN(C)CC3)cc2)cc1Nc1nc(-c2cccnc2)cs1` [MASITINIB] had a pEC50 of 5.68.

In data set [2], `CC(C)C(=O)OC[C@H]1O[C@@H](n2ccc(NO)nc2=O)[C@H](O)[C@@H]1O` [MOLNUPIRAVIR] returned a CC50 at 72 h of 18.3 µM. Besides, in the data set on Human coronavirus OC43 [3], the pEC50 is 6.74. Further, the selectivity ratio in the data set “in vitro” turned out to be 102.

Turning to `O=C(Nc1ccc([N+](=O)[O-])cc1Cl)c1cc(Cl)ccc1O` [NICLOSAMIDE], the pEC50 in the data set on SARS-CoV-2 is 6.40.

(Values after ChEMBL document CHEMBL5537137, “Design, synthesis and biological evaluation of biaryl amide derivatives against SARS-CoV-2 with dual-target mechanism” (Eur J Med Chem, 2024).)
